Measured values from patent US12054494B2, “Compound with anticancer activity” (KYOWA KIRIN CO., LTD., priority 2018, dated 2024).

Test system: SU-DHL-4 cells
Assay: Inhibitory effect on cell viability (Cell Counting Kit-8)
Type: cell-based
Conditions: Homo sapiens, 72 hours culture with test compound, concentration showing 90% inhibition rate of cell viability
Procedure, shortened: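 SU-DHL-4 cells (2000/well, RPMI1640 with 10% FBS) precultured 18-25 h, then exposed to a 9-step compound dilution series (0.1% DMSO final) for 72 h at 37° C. Viability by CCK-8 absorbance at 450 nm after 2-3 h; IC90 computed from inhibition rate relative to untreated and cell-free wells.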

SMILES	IC90 [nM]
CCC(=O)N1c2ccccc2[C@H](Nc2ccc(Cc3cnc4n3CCN(Cc3ccc(N[C@@H]5C[C@H](C)N(C(=O)CC)c6ccccc65)cc3)C4)cc2)C[C@@H]1C [Compound 5c, 1,1′-((2S,2′S,4R,4′R)-((((5,6-Dihydroimidazo[1,2-a]pyrazine-3,7(8H)-diyl)bis(methylene))bis(4,1-phenylene))bis(azanediyl))bis(2-methyl-3,4-dihydroquinoline-4,1(2H)-diyl))bis(propan-1-one)]	63.6
CCC(=O)N1c2ccccc2[C@H](Nc2ccc(NC(=O)CCCC(=O)Nc3ccc(N[C@@H]4C[C@H](C)N(C(=O)CC)c5ccccc54)cn3)cc2)C[C@@H]1C (relative stereo) [Compound 10l, N^1-(4-(((2S,4R)-2-Methyl-1-propionyl-1,2,3,4-tetrahydroquinolin-4-yl)amino)phenyl)-N^5-(5-(((2S*,4R*)-2-methyl-1-propionyl-1,2,3,4-tetrahydroquinolin-4-yl)amino)pyridin-2-yl)glutaramide]	1.08
CCC(=O)N1c2ccccc2[C@H](Nc2ccc(NC(=O)Cn3cc(-c4ccc(N[C@@H]5C[C@H](C)N(C(=O)CC)c6ccccc65)cc4)cn3)cc2)C[C@@H]1C (relative stereo) [Compound 6n, N-(4-(((2S*,4R*)-2-Methyl-1-propionyl-1,2,3,4-tetrahydroquinolin-4-yl)amino)phenyl)-2-(4-(4-(((2S,4R)-2-methyl-1-propionyl-1,2,3,4-tetrahydroquinolin-4-yl)amino)phenyl)-1H-pyrazol-1-yl)acetamide]	0.13
CCC(=O)N1c2ccccc2[C@H](NCCCCCCCC(=O)Nc2ccc(N[C@@H]3C[C@H](C)N(C(=O)CC)c4ccccc43)cc2)C[C@@H]1C (relative stereo) [Compound 12h, 8-(((2S*,4R*)-2-Methyl-1-propionyl-1,2,3,4-tetrahydroquinolin-4-yl)amino)-N-(4-(((2S,4R)-2-methyl-1-propionyl-1,2,3,4-tetrahydroquinolin-4-yl)amino)phenyl)octanamide]	3.92

Test system: MYC mRNA expression in SU-DHL-4 cells
Assay: Suppressive effect on MYC mRNA expression (qRT-PCR)
Type: cell-based
Conditions: test compound 100 nmol/L, 6 hours
Method: Suppressive Effect on MYC mRNA Expression
SU-DHL-4 cells were cultured at 37° C. using a carbon dioxide gas incubator (95% air, 5% CO2) in RPMI1640 medium in which FBS in an amount to give a final concentration of 10 vol % and PS in an amount to give a final concentration of 1 vol % were added. The cells were passaged twice a week at a volume of 20-40 mL so as to maintain a cell concentration of 1×10^6 cells/mL or less.
The cultured SU-DHL-4 cells were seeded at 6×10^5 cells/well in a transparent 6-well plate (Code No. 140675, Thermo Fisher Scientific). After seeding, the cells were precultured at 37° C. in a carbon dioxide gas incubator for 18 to 25 hours. Next, a 0.1 mmol/L DMSO solution of the test compound was prepared, diluted so that the concentration will be 200 times the final concentration in the RPMI1640 medium containing the above FBS and PS, and 1/200 volume of the diluted solution was added to each well. At this time, the final concentration of DMSO was adjusted to be 0.1 vol %. After adding the test compound, the cells were cultured at 37° C. in a carbon dioxide gas incubator for 6 hours.
Then, the cells were collected by centrifugation and used for extraction of mRNA. mRNA extraction from cells was performed using Maxwell® 16 LEV simplyRNA Purification Kits (Code No. AS1270, Promega). The mRNA recovery protocol was performed according to the manufacturer's recommended protocol attached to the kit.
0.001 mg of the recovered mRNA was converted to cDNA by SuperScript IV VILO Master Mix with ezDNase Enzyme (Code No. 11766050, Thermo Fisher Scientific). The cDNA conversion was performed, according to the manufacturer's recommended protocol attached to the kit, in 0.020 mL of the reaction solution, and GeneAmp® PCR System 9700 (Applied Biosystems) was used. The cDNA-converted sample was diluted 10-fold by adding 0.180 mL of RNase Free Water (Code No. 10977-023, Thermo Fisher Scientific) and used for quantitative real-time polymerase chain reaction (qRT-PCR). For the calibration curve of qRT-PCR, 0.08 mL of RNase Free Water was added to a cDNA sample using DMSO as a test compound for 5-fold dilution. Further, two 5-fold dilutions were prepared stepwise, and these three samples were used as the calibration curve samples.
The following reagents were used for qRT-PCR: TaqMan Gene Expression Assays, Inventoried (Primer probe: Code No. 4331182, Thermo Fisher Scientific, Assay ID: (i) MYC: Hs00153408_m1, (ii) ACTB: Hs01060665_g1, (iii) GAPDH: Hs04420697_g1, (iv) HPRT1: Hs02800695_m1); 2X TaqManR Fast Universal PCR Master Mix, no AmpEraseR UNG (Master Mix: Code No. 4367846, Thermo Fisher Scientific).
Primer probe (0.001 mL), Master Mix (0.010 mL), water (0.004 mL) and the diluted cDNA sample (0.005 mL) were mixed, and qRT-PCR analysis was performed. For qRT-PCR analysis, QuantStudio 7 Flex (Thermo Fisher Scientific) or 7500 Fast Real-Time PCR (Applied Biosystems) was used to measure in Fast mode and analyze. The expression level of the MYC gene was determined by quantifying ACTB, GAPDH, and HPRT1 as housekeeping genes and correcting by the following formula to calculate the suppression rate of (%) of MYC mRNA expression when the test compound was allowed to act at a concentration of 100 nmol/L. Corrected MYC expression=A/B • A: MYC expression level • B: Geometric mean of expression levels of ACTB, GAPDH and HPRT1
Using the corrected values, the suppression rate of MYC expression for the wells to which […] was calculated by the following formula. Suppression rate of MYC expression (%)=100−C/D×100 • C: Corrected MYC expression level in a well containing test compound • D: Corrected MYC expression level in a well to which test compound was not added

SMILES	Suppression rate of MYC mRNA expression [%]
CCC(=O)N1c2ccccc2[C@H](Nc2ccc(NC(=O)CNC(=O)N[C@H]3CC[C@H](N[C@@H]4C[C@H](C)N(C(=O)CC)c5ccccc54)CC3)cc2)C[C@@H]1C [Compound 8j, 2-(3-((1R,4R)-4-(((2S,4R)-2-Methyl-1-propionyl-1,2,3,4-tetrahydroquinolin-4-yl)amino)cyclohexyl)ureido)-N-(4-(((2S,4R)-2-methyl-1-propionyl-1,2,3,4-tetrahydroquinolin-4-yl)amino)phenyl)acetamide]	97.2
CCC(=O)N1c2ccccc2[C@H](Nc2ccc(NC(=O)CCCC(=O)NC3CCN(Cc4cc(O)cc(-c5c(C)noc5C)c4)CC3)cc2)C[C@@H]1C [Compound 12c, N^1-(1-(3-(3,5-Dimethylisoxazol-4-yl)-5-hydroxybenzyl)piperidinyl)-N^5-(4-(((2S,4R)-2-methyl-1-propionyl-1,2,3,4-tetrahydroquinolin-4-yl)amino)phenyl)glutaramide]	97.8
CCC(=O)N1c2ccccc2[C@H](NCCCCC(=O)NCc2cn(-c3ccc(N[C@@H]4C[C@H](C)N(C(=O)CC)c5ccccc54)cc3)nn2)C[C@@H]1C (relative stereo) [Compound 12f, 5-(((2S*,4R*)-2-Methyl-1-propionyl-1,2,3,4-tetrahydroquinolin-4-yl)amino)-N-((1-(4-(((2S,4R)-2-methyl-1-propionyl-1,2,3,4-tetrahydroquinolin-4-yl)amino)phenyl)-1H-1,2,3-triazol-4-yl)methyl)pentane amide]	97.9
Cc1sc2c(c1C)C(c1ccc(Cl)cc1)=N[C@@H](CC(=O)NCCOCCOCCOCCOCCOCCOCCOCCNC(=O)C[C@@H]1N=C(c3ccc(Cl)cc3)c3c(sc(C)c3C)-n3c(C)nnc31)c1nnc(C)n1-2 [compound 2, reference compound]	57.7
CCC(=O)N1c2ccccc2[C@H](Nc2ccc(Cn3cc(C(=O)Nc4ccc(N[C@@H]5C[C@H](C)N(C(=O)CC)c6ccccc65)cc4)nn3)cc2)C[C@@H]1C [Compound 5j, 1-(4-(((2S,4R)-2-Methyl-1-propionyl-1,2,3,4-tetrahydroquinolin-4-yl)amino)benzyl)-N-(4-(((2S,4R)-2-methyl-1-propionyl-1,2,3,4-tetrahydroquinolin-4-yl)amino)phenyl)-1H-1,2,3-triazolee-4-carboxamide]	96.8
CCC(=O)N1c2ccccc2[C@H](Nc2ccc(-c3nnc(CNC(=O)[C@H]4CC[C@H](N[C@@H]5C[C@H](C)N(C(=O)CC)c6ccccc65)CC4)o3)cc2)C[C@@H]1C [Compound 7q, (1R,4R)-4-(((2S,4R)-2-Methyl-1-propionyl-1,2,3,4-tetrahydroquinolin-4-yl)amino)-N-((5-(4-(((2S,4R)-2-methyl-1-propionyl-1,2,3,4-tetrahydroquinolin-4-yl)amino)phenyl)-1,3,4-oxadiazol-2-yl)methyl)cyclohexane-1-carboxamide]	97.4
CCC(=O)N1c2ccccc2[C@H](Nc2ccc(C(=O)NCCCNC(=O)c3ccc(C4=N[C@@H](CC(=O)OC5CCC(O)CC5)c5nnc(C)n5-c5sc(C)c(C)c54)cc3)cc2)C[C@@H]1C (stereo partly drawn) [Compound 13d, 4-Hydroxycyclohexyl 2-((S)-2,3,9-trimethyl-4-(4-((3-(4-(((2S,4R)-2-methyl-1-propionyl-1,2,3,4-tetrahydroquinolin-4-yl)amino)benzamide)propyl)carbamoyl)phenyl)-6H-thieno[3,2-f][1,2,4]triazolo[4,3-a][1,4]diazepin-6-yl)acetate]	97.2
CCC(=O)N1c2ccccc2[C@H](Nc2ccc(NC(=O)CCCC(=O)Nc3ccc(Cn4c(C(=O)OCCN(C)C)cc5c4CCCC5=O)cc3)cc2)C[C@@H]1C [Compound 15a, 2-(Dimethylamino)ethyl 1-(4-(5-((4-(((2S,4R)-2-methyl-1-propionyl-1,2,3,4-tetrahydroquinolin-4-yl)amino)phenyl)amino)-5-oxopentanamide)benzyl)-4-oxo-4,5,6,7-tetrahydro-1H-indole-2-carboxylate]	97.6
CCC(=O)N1c2ccccc2[C@H](Nc2ccc(CCC(=O)NCC3(NC4CCC(N[C@@H]5C[C@H](C)N(C(=O)CC)c6ccccc65)CC4)COC3)cc2)C[C@@H]1C (some centres unmarked) [Compound 7h]	97.5
CCC(=O)N1c2ccccc2[C@H](N[C@H]2CC[C@H](NC(=O)C#CCNC(=O)[C@H]3CC[C@H](N[C@@H]4C[C@H](C)N(C(=O)CC)c5ccccc54)CC3)CC2)C[C@@H]1C (relative stereo) [Compound 9d, (1R,4R)-4-(((2S*,4R*)-2-Methyl-1-propionyl-1,2,3,4-tetrahydroquinolin-4-yl)amino)-N-(4-(((1R,4R)-4-(((2S,4R)-2-methyl-1-propionyl-1,2,3,4-tetrahydroquinolin-4-yl)amino)cyclohexyl)amino)-4-oxobut-2-yn-1-yl)cyclohexane-1-carboxamide]	98.0
